# According to US12280045B2, “Antitumor agent and antitumor effect potentiator” (TAIHO PHARMACEUTICAL CO., LTD., priority 2017, dated 2025):
# Experiments:
# [1] = test system: mouse colon cancer cell line MC38; assay: Antitumor effect (tumor volume) in MC38 colon cancer cell transplant model; format: in vivo; conditions: for TV, DAY 22 MEAN ± S.E.: N=10
# Procedure: MC38, a mouse colon cancer cell line, was provided by Dr. Yoshihiro Hayakawa (University of Toyama, Toyama, Japan). MC38 was cultured in RPMI 1640 medium containing 10% fetal bovine serum (FBS). MC38 was subcultured in a 37° C., 5% CO2 incubator in a 1:3 to 1:5 ratio, one to two times a week.
# A cell suspension as a suspension of MC38 cells in a 1:1 mixture of phosphate-buffered saline (PBS) and extracellular matrix component Matrigel was prepared, and the suspension, containing 1×10^6 cells/0.1 mL, was transplanted subcutaneously into a C57BL/6NCrl mouse (Charles River Laboratories Japan Inc.), six weeks of age, in an area around the right last rib.
# (§1) The tumor size was measured by measuring the major axis and minor axis of the tumor with a digimatic caliper, and TV was calculated using the following formula. TV (mm^3)=major axis (mm)×minor axis (mm)×minor axis (mm)/2
# The animals were divided into groups of 10 using a stratified random grouping method, using TV as an index. The day the grouping was made (N=10) was designated as Day 1.
# (§2) A methanesulfonic acid salt of compound 1 was pulverized with an agate mortar, and was prepared into a solution having a concentration of 5 mg/mL as its free form, using a solvent. The compound was then dissolved by sonication to prepare a 50 mg/kg dosing solution. The dosing solution was diluted with solvent to prepare a 25 mg/kg dosing solution, and a 12.5 mg/kg dosing solution. These dosing solutions were orally administered as compound 1, once daily in a dose of 12.5 mg/kg/day, 25 mg/kg/day, or 50 mg/kg/day, continuously for 21 days.
# (§3) The anti-mouse PD-1 antibody was intraperitoneally administered in a dose of 0.05 mg/body on the first day (Day 1) of administration and on the 8th day since administration was started.
# (§4) The medicinal agents shown in Table 1 were administered in the schedules, doses, and dosage forms shown in Table 1 (administered group No. 1 to No. 8).
# A Dunnett's test (significance level 0.05) was conducted to analyze Day 22 TV for each group.
# [2] = Percentage of body weight change in MC38 colon cancer cell transplant model; format: in vivo, mouse
# Procedure: (§5) An electronic balance designed for animals was used for body weight measurement. A percentage of body weight change (BWCn) on day n was calculated from the body weight on day 1 (BW1) and the body weight (BWn) on day n using the following formula. Percentage of body weight change BWCn (%)=(BWn−BW1)/BW1×100
# as §2, §3, §4
# [3] = test system: tumor-associated macrophage; assay: Fraction of tumor-associated macrophage in TIL, MC38 colon cancer cell transplant model (flow cytometry); format: in vivo, mouse
# Procedure: MC38, a mouse colon cancer cell line, was provided by Dr. Yoshihiro Hayakawa (University of Toyama, Toyama, Japan). MC38 was cultured in RPMI 1640 medium containing 10% FBS. MC38 was subcultured in a 37° C., 5% CO2 incubator in a 1:3 to 1:5 ratio, one to two times a week.
# A cell suspension of MC38 cells containing 2×10^6 cells/0.1 mL, was transplanted subcutaneously into a C57BL/6NJJcl mouse (CLEA Japan, Inc.), six weeks of age, in an area around the right last rib.
# The tumor size was measured by measuring the major axis and minor axis of the tumor with a digimatic caliper, and TV was calculated using the following formula. TV (mm^3)=major axis (mm)×minor axis (mm)×minor axis (mm)/2 […]
# The tumor was collected on the 10th day (Day 10) since administration was started, and a tumor suspension was prepared using a digestive enzyme treatment method. […] The isolated TILs were reacted with fluorescence-labeled anti-CD45 antibody, anti-CD90.2 (T cell marker) antibody, anti-CD11b (myeloid leukocyte marker) antibody, anti-Ly-6G (granulocytic bone marrow-derived suppressor cell marker) antibody, anti-Ly-6C (monocytic bone marrow-derived suppressor cell marker) antibody, and anti-F4/80 (macrophage marker) antibody, and the fraction of tumor-associated macrophage in TIL was calculated by fluorescence flow cytometry. […]
# [4] = test system: mouse breast cancer cell line EMT6; assay: Antitumor effect (tumor volume) in EMT6 breast cancer cell transplant model; format: in vivo
# Procedure: EMT6, a mouse breast cancer cell line, was obtained from American Type Culture Collection (ATCC). EMT6 was cultured in Waymouth's MB752/1 medium containing […]. EMT6 was subcultured in a 37° C., 5% CO2 incubator in a 1:3 to 1:5 ratio, one to two times a week.
# (§6) A cell suspension as a suspension of EMT6 cells in a 1:1 mixture of PBS and extracellular matrix component Matrigel was prepared, and the suspension, containing 1×10^4 cells/0.1 mL, was transplanted subcutaneously into a BALB/c mouse (Charles River Laboratories Japan Inc.), six weeks of age, in an area around the right last rib.
# as §1
# The animals were divided into groups of 15 using a stratified random grouping method, using TV as an index. The day the grouping was made (N=15) was designated as Day 1.
# A methanesulfonic acid salt of compound 1 was pulverized with an agate mortar, and was prepared into a solution having a concentration of 4.2 mg/mL as its free form, using a solvent. The compound was then dissolved by sonication to prepare a 42 mg/kg dosing solution. The dosing solution was orally administered as compound 1, once daily in a dose of 42 mg/kg/day, continuously for 14 days. […]
# [5] = Percentage of body weight change in EMT6 breast cancer cell transplant model; format: in vivo, mouse; conditions: Compound 1 42 mg/kg p.o. q.d. Day 1-14 / PBS i.p.
# Procedure: as §5
# An electronic balance designed for animals was used for body weight measurement. A percentage of body weight change (BWCn) on day n was calculated in the same manner as in Example 1.
# A methanesulfonic acid salt of compound 1 was pulverized with an agate mortar, and was prepared into a solution having a concentration of 4.2 mg/mL as its free form, using a solvent. The compound was then dissolved by sonication to prepare a 42 mg/kg dosing solution. The dosing solution was orally administered as compound 1, once daily in a dose of 42 mg/kg/day, continuously for 14 days.
# The anti-mouse PD-1 antibody was intraperitoneally administered in a dose of 0.1 mg/body on the first day (Day 1) of administration, and on the 4th day (Day 4), the 8th day (Day 8), and the 11th day (Day 11) since administration was started.
# The anti-mouse CTLA-4 antibody was intraperitoneally administered in a dose of 0.5 mg/body on the first day (Day 1) of administration, and after 4 days (Day 4), 8 days (Day 8), and 11 days (Day 11) from administration. […]
# [6] = test system: tumor-associated macrophage; assay: Fraction of tumor-associated macrophage in TIL, EMT6 breast cancer cell transplant model (flow cytometry); format: in vivo, mouse
# Procedure: EMT6, a mouse breast cancer cell line, was obtained from ATCC. EMT6 was cultured in Waymouth's MB752/1 medium containing 15% FBS. EMT6 was subcultured in a 37° C., 5% CO2 incubator in a 1:3 to 1:5 ratio, one to two times a week.
# as §6
# After 4 days from transplantation, the animals were divided into groups of 5 using a stratified random grouping method, using body weight as an index. The day the grouping was made (N=5) was designated as Day 1.
# A methanesulfonic acid salt of compound 1 was pulverized with an agate mortar, and was prepared into a solution having a concentration of 4.2 mg/mL as its free form, using a solvent. […]
# The tumor was collected on the 7th day (Day 7) since administration was started, and a tumor suspension was prepared using a digestive enzyme treatment method. […] The isolated TILs were reacted with fluorescence-labeled anti-CD45 antibody, anti-CD90.2 antibody, anti-CD11b antibody, anti-Ly-6G antibody, anti-Ly-6C antibody, and anti-F4/80 antibody, and the fraction of tumor-associated macrophage in TIL was calculated by fluorescence flow cytometry. […]
# [7] = test system: mouse MC38 tumor model; assay: Dose finding of compound 1 in mouse MC38 tumor model; format: in vivo; conditions: orally administered once daily for 21 days
# Procedure: An experiment was conducted with mouse MC38 tumor model. Tumor cells were cultured in vitro and transplanted subcutaneously into male mice, six weeks of age, in the right chest region, followed by daily administration of compound 1 and a control antibody. […] This dose (oral continuous administration of 50 mg/kg for 21 days, q.d.) is equivalent to the recommended dose of compound 1 in humans when administered alone.
smiles,measurement,setting,value
"CNC(=O)c1cc2c(Oc3ccc(NC(=S)NC(=O)Cc4ccccc4)cc3F)ccnc2cc1OC [Compound 1, 4-(2-fluoro-4-(3-(2-phenylacetyl)thioureido)phenoxy)-7-methoxy-N-methylquinoline-6-carboxamide]","TV, DAY 22 MEAN ± S.E.","[1]; Compound 1 12.5 mg/kg p.o. q.d. Day 1-21 / PBS i.p. Day 1, 8",1007 ± 161 mm^3
same,"TV, DAY 22 MEAN ± S.E.","[1]; Compound 1 25 mg/kg p.o. q.d. Day 1-21 / PBS i.p. Day 1, 8",763 ± 50 mm^3
same,"TV, DAY 22 MEAN ± S.E.","[1]; Compound 1 50 mg/kg p.o. q.d. Day 1-21 / PBS i.p. Day 1, 8",437 ± 62 mm^3
same,"Day 22 TV versus control group (No. 1), result in words","[1]; Dunnett's test, significance level 0.05, doses as in Table 1",significantly smaller TVs than control group
same,BWC22 MEAN ± S.E.,[2]; Compound 1 12.5 mg/kg p.o. q.d. Day 1-21 / PBS i.p.,6.1 ± 0.7%
same,BWC22 MEAN ± S.E.,[2]; Compound 1 25 mg/kg p.o. q.d. Day 1-21 / PBS i.p.,5.0 ± 0.9%
same,BWC22 MEAN ± S.E.,[2]; Compound 1 50 mg/kg p.o. q.d. Day 1-21 / PBS i.p.,−0.3 ± 0.9%
same,Fraction of tumor-associated macrophage MEAN ± S.E.,"[3]; Compound 1 25 mg/kg p.o. q.d. Day 1-9, tumor collected Day 10, N=5",8.2 ± 2.3%
same,"fraction of tumor-associated macrophage versus control group (No. 1), result in words","[3]; Dunnett's test, significance level 0.05, doses as in Table 2",significantly smaller fractions of tumor-associated macrophage than control group
same,"TV, DAY 15 MEAN ± S.E.","[4]; Compound 1 42 mg/kg p.o. q.d. Day 1-14 / PBS i.p. Day 1, 4, 8, 11, N=15",312 ± 29 mm^3
same,"Day 15 TV versus control group (No. 1), result in words","[4]; Dunnett's test, significance level 0.05, doses as in Table 3",significantly smaller TVs than control group
same,BWC15 MEAN ± S.E.,[5],3.2 ± 1.0%
same,Fraction of tumor-associated macrophage MEAN ± S.E.,"[6]; Compound 1 42 mg/kg p.o. q.d. Day 1-6, tumor collected Day 7, N=5",20.3 ± 4.8%
same,"fraction of tumor-associated macrophage versus control group (No. 1), result in words","[6]; Dunnett's test, significance level 0.05, doses as in Table 4",significantly smaller fraction of tumor-associated macrophage than control group
same,preferred minimum dose that produces the maximum efficacy in the mouse,[7],50 mg/kg
